From PubChem BioAssay (NCI)
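Step 1: Grow cells in 96-well plates. Step 2: Expose to compound for 48 hours at 5 concentrations. Step 3: Interpolate endpoints linearly; if unreached, use highest concentration. At the GI50, growth is halved. The concentration for full growth arrest is given as TGI.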

Tests used:
Test in all cases: growth of human tumour cells (NCI), 48 h
PC-3 prostate = system: PC-3 prostate
MDA-N = system: MDA-N
MALME-3M melanoma = system: MALME-3M melanoma
HS 578T breast = system: HS 578T breast
M14 melanoma = system: M14 melanoma
SK-MEL-2 melanoma = system: SK-MEL-2 melanoma
HCC-2998 colon = system: HCC-2998 colon
SR leukemia = system: SR leukemia
K-562 leukemia = system: K-562 leukemia
KM12 colon = system: KM12 colon

SMILES	TGI (PC-3 prostate) [µM]	TGI (MDA-N) [µM]	TGI (MALME-3M melanoma) [µM]	TGI (HS 578T breast) [µM]	TGI (M14 melanoma) [µM]	TGI (SK-MEL-2 melanoma) [µM]	TGI (HCC-2998 colon) [µM]	TGI (SR leukemia) [µM]	TGI (K-562 leukemia) [µM]	TGI (KM12 colon) [µM]	GI50 (SK-MEL-2 melanoma) [µM]	GI50 (SR leukemia) [µM]
COC(=O)c1ccccc1C1CN=NC12Cc1ccc3ccccc3c1C2=O (centres undefined)	> 100	> 100	> 100	> 100	> 100	> 100	> 100	> 100	> 100	> 100		
Cc1ccc(S(=O)ON2CCC(C(=O)O)(c3ccccc3)CC2)cc1 (centres undefined)	> 100	> 100	> 100	> 100	> 100	> 100	> 100	> 100	> 100	> 100	> 100	> 100
CCOC(=O)c1nc2cc(N3CCOCC3)c(F)cc2[nH]c1=O	> 100	> 100	> 100	> 100	> 100	> 100	> 100	> 100	> 100	> 100		
CCOC(=O)CN1CCNCCN(CC(=O)OCC)CCNCC1	> 100	> 100		> 100		> 100	> 100	> 100	> 100	> 100		
CCOC(=O)c1c(C)n(Cc2ccccc2)c(=O)c2ccccc2c(=O)c2c(=O)ccc(=O)c1=2	> 100	> 100	41.9	> 100	> 100	> 100	> 100	> 100	> 100	> 100		
CN1CCCN2CCN(C)CCN(CC1)CC2	> 100	> 100	> 100	> 100	> 100	> 100	> 100	> 100	> 100	> 100		
Cn1cc(C(=O)c2nccc3c2cnc2ccccc23)ccc1=O	> 100	> 100	> 100	> 100	> 100	> 100	> 100	49.7	> 100	> 100		
Cc1ccc(/C=C2\CN(C)CC3=C2OC(N)=C(C#N)C3c2ccc(C)cc2)cc1 (centres undefined)	> 45.1	38.1	37.2	> 100	43.9	> 63.4	37.2	> 100	> 100	39.3		
CCN(CC)C(=S)SS(=O)(=O)c1ccccc1C(=O)O	> 100	> 100	> 100	> 100	> 100	> 100	> 100	> 100	> 100	> 100		
CC1=C(/C=C/C(C)=C/C=C/C(C)=C/C(=O)OCC2OC(n3cc(F)c(=O)[nH]c3=O)CC2OC(=O)/C=C(C)/C=C/C=C(C)/C=C/C2=C(C)CCCC2(C)C)C(C)(C)CCC1 (centres undefined)	> 56.2	> 48.4	> 100	> 68.8	> 48.3	> 100	15	> 59.6	> 72.5	> 74.7		
c1ccc(N=C2c3ccccc3CN2c2ccccc2)cc1	> 100	> 100	> 100	> 100	> 100	> 100	> 100	> 100	> 100	> 100		
CC1C(c2ccc(F)cc2)c2cc3c(cc2OC1N1CCCC1)OCO3 (centres undefined)	> 100	> 100		54.8	> 100	> 100	> 100	> 100	> 100	> 100		
Clc1ccc(N=C/C=C/Nc2ccc(Cl)cn2)nc1	27.6	28.4	31.2	23.3	30.2	29.2	0.922	6.69	23.2	21		
CC(=O)N=C(N=Nc1c(O)[nH]c2ccc(C)cc12)NC(C)=O	> 100	> 100	> 100	> 100	> 100	> 100	> 100	> 100	> 100	> 100		
CSC(SC)=C1CC(=O)Nc2ccccc2C1=O	> 100	> 100	> 100	> 100	> 100	> 100	> 100	> 100	95.8	> 100		
